Patent US11478460B2, “Diaryl substituted 6,5-fused ring compounds as C5aR inhibitors” (CHEMOCENTRYX, INC., priority 2017, dated 2022)
pIC50: −log10 of the molar value.

biological target: C5aR (Homo sapiens (Human), UniProt P21730); experiment: Chemotaxis assay using U937 cells (C5aR mediated migration); assay type: cell-based; settings: read-out: Mig IC50
Description: U937 cells are a monocytic cell line which express C5aR, and are available from ATCC (VA). These cells were cultured as a suspension in RPMI-1640 medium supplemented with 2 mM L-glutamine, 1.5 g/L sodium bicarbonate, 4.5 g/L glucose, 10 mM HEPES, 1 mM sodium pyruvate, and 10% FBS. Cells were grown under 5% CO2/95% air, 100% humidity at 37° C. and subcultured twice weekly at 1:6 (cells were cultured at a density range of 1×10^5 to 2×10^6 cells/mL) and harvested at 1×10^6 cells/mL. Prior to assay, cells are treated overnight with 0.5 mM of cyclic AMP (Sigma, OH) and washed once prior to use. cAMP treated U937 cells can be used in C5aR ligand binding and functional assays.
Optionally, compounds may be further assayed for their ability to inhibit chemotaxis in cells. Chemotaxis assays are performed using 5 μm pore polycarbonate, polyvinylpyrrolidone-coated filters in 96-well chemotaxis chambers (Neuroprobe; Gaithersburg, Md.) using chemotaxis buffer (Hank's balanced salt solution (HBSS) and 1% FBS). C5aR ligands (i.e., C5a, R&D Systems; Minneapolis, Minn.) are use to evaluate compound mediated inhibition of C5aR mediated migration. Other chemokines (i.e., SDF-1α; R&D Systems; Minneapolis, Minn.) are used as specificity controls. The lower chamber is loaded with 29 μl of chemokine (i.e., 0.03 nM C5a) and varying amounts of compound; the top chamber contains 100,000 U937 or neutrophil cells in 20 μl. The chambers are incubated 1.5 hours at 37° C., and the number of cells in the lower chamber quantified either by direct cell counts in five high powered fields per well or by the CyQuant assay (Molecular Probes), a fluorescent dye method that measures nucleic acid content and microscopic observation.
The compounds in Table 1, below, were prepared using the methods described above. Characterization data is provided for each compound listed. Activity is provided as follows for the chemotaxis assay using U937 cells as described herein (Example 12): +, 500 nM<IC50; ++, 50 nM<IC50≤500 nM; +++, 5 nM<IC50≤50 nM; and ++++, IC50≤5 nM.

Sequence of C5aR (P21730 whole entry): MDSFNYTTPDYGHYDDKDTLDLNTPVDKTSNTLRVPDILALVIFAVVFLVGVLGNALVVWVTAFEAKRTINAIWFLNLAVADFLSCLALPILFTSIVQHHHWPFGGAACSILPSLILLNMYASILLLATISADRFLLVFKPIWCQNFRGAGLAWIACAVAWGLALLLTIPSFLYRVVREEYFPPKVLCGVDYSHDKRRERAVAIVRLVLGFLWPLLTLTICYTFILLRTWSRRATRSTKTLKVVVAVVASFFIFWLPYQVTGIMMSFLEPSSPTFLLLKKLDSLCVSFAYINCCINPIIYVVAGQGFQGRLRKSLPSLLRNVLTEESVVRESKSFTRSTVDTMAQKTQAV

`CCc1cccc(CC)c1-n1nc2c(c1-c1cc(F)c(NC(N)=O)cc1F)CN(Cc1ccc(C(F)(F)F)cc1C)C(C)(C)C2` [Example 1.047] and `CCc1cccc(CC)c1-n1nc2c(c1-c1cc(F)c(NC(N)=O)cc1F)CN(Cc1ccc(C(F)(F)F)cc1F)C(C)(C)C2` [Example 1.050] cannot be ordered by pIC50: no less than 8.30 for the first, no less than 8.30 for the second.

`CCc1cccc(CC)c1-n1nc2c(c1-c1cc(F)c(NC(N)=O)cc1F)CN(Cc1ccc(C#N)cc1C(F)(F)F)CC2` [Example 1.048] and `CCc1cccc(CC)c1-n1nc2c(c1-c1cc(F)c(NC(N)=O)cc1F)CN(Cc1ccc(Cl)cc1C(F)(F)F)CC2` [Example 1.076] cannot be ordered by pIC50: no less than 8.30 for the first, no less than 8.30 for the second.

`CCc1cccc(CC)c1-n1nc2c(c1-c1cc(F)c(NC(N)=O)cc1F)CN(Cc1ccccc1)CC2` [Example 1.051] and `CCc1cccc(CC)c1-n1nc2c(c1-c1cc(F)c(NC(N)=O)cc1F)CN(Cc1ccccc1C(F)(F)F)CC2` [Example 1.067] cannot be ordered by pIC50: no less than 8.30 for the first, no less than 8.30 for the second.

`CCc1cccc(CC)c1-n1nc2c(c1-c1cc(F)c(NC(N)=O)cc1F)CN(Cc1ccc(Cl)cc1C(F)(F)F)C(C)(C)C2` [Example 1.052] and `CCc1cccc(CC)c1-n1nc2c(c1-c1cc(F)c(NC(N)=O)cc1F)CN(Cc1ccc(C(F)(F)F)cc1C(F)(F)F)C(C)(C)C2` [Example 1.059] cannot be ordered by pIC50: no less than 8.30 for the first, no less than 8.30 for the second.

`CCc1cccc(CC)c1-n1nc2c(c1-c1cc(F)c(NC(N)=O)cc1F)CN(Cc1ccc(OC)cc1C(F)(F)F)CC2` [Example 1.053] and `CCc1cccc(CC)c1-n1nc2c(c1-c1cc(F)c(NC(N)=O)cc1F)CN(Cc1ccc(C(F)(F)F)cc1OC)CC2` [Example 1.058] cannot be ordered by pIC50: no less than 8.30 for the first, no less than 8.30 for the second.

`CCc1cccc(CC)c1-n1nc2c(c1-c1cc(F)c(NC(N)=O)cc1F)CN(Cc1ccc(C(C)(C)C)cc1)CC2` [Example 1.054] and `CCc1cccc(CC)c1-n1nc2c(c1-c1cc(F)c(NC(N)=O)cc1F)CN(Cc1ccc(C(F)(F)F)cc1)CC2` [Example 1.065] cannot be ordered by pIC50: no less than 8.30 for the first, no less than 8.30 for the second.

`CCc1cccc(CC)c1-n1nc2c(c1-c1cc(F)c(NC(N)=O)cc1F)CN(Cc1cc(C(F)(F)F)ccc1C(F)(F)F)CC2` [Example 1.055] and `CCc1cccc(CC)c1-n1nc2c(c1-c1cc(F)c(NC(N)=O)cc1F)CN(Cc1ccc(C(F)(F)F)cc1C(F)(F)F)CC2` [Example 1.077] cannot be ordered by pIC50: no less than 8.30 for the first, no less than 8.30 for the second.

`CCc1cccc(CC)c1-n1nc2c(c1-c1cc(F)c(NC(N)=O)cc1F)CN(Cc1ccc(C(F)(F)F)cc1Cl)CC2` [Example 1.057] and `CCc1cccc(CC)c1-n1nc2c(c1-c1cc(F)c(NC(N)=O)cc1F)CN(Cc1ccc(C(F)(F)F)cc1C)CC2` [Example 1.064] cannot be ordered by pIC50: no less than 8.30 for the first, no less than 8.30 for the second.

`Cc1cccc(C)c1-n1nc2c(c1-c1cc(F)c(NC(N)=O)cc1F)CN(Cc1ccc(C(F)(F)F)cc1C(F)(F)F)CC2` [Example 1.060] and `Cc1cccc(C)c1-n1nc2c(c1-c1cc(F)c(NC(N)=O)cc1F)CN(Cc1ccc(Cl)cc1C(F)(F)F)CC2` [Example 1.061] cannot be ordered by pIC50: 7.30 to 8.30 for the first, no less than 8.30 for the second.

`CCc1cccc(CC)c1-n1nc2c(c1-c1cc(F)c(NC(N)=O)cc1F)CN(Cc1c(F)cc(C(F)(F)F)cc1C(F)(F)F)CC2` [Example 1.062] and `CCc1cccc(CC)c1-n1nc2c(c1-c1cc(F)c(NC(N)=O)cc1F)CN(Cc1ccc(C(F)(F)F)cc1F)CC2` [Example 1.066] cannot be ordered by pIC50: no less than 8.30 for the first, no less than 8.30 for the second.

`CCc1cccc(CC)c1-n1nc2c(c1-c1cc(F)c(NC(N)=O)cc1F)CN(Cc1ccc(C)cc1C)CC2` [Example 1.063] and `CCc1cccc(CC)c1-n1nc2c(c1-c1cc(F)c(NC(N)=O)cc1F)CN(Cc1ccc(Cl)cc1Cl)CC2` [Example 1.073] cannot be ordered by pIC50: no less than 8.30 for the first, no less than 8.30 for the second.

`CCc1cccc(CC)c1-n1nc2c(c1-c1cc(F)c(NC(N)=O)cc1C)CN(Cc1ccc(C(F)(F)F)cc1C(F)(F)F)CC2` [Example 1.068] and `CCc1cccc(CC)c1-n1nc2c(c1-c1cc(F)c(NC(N)=O)cc1F)CN(Cc1cc(Cl)ccc1C(F)(F)F)CC2` [Example 1.069] cannot be ordered by pIC50: no less than 8.30 for the first, no less than 8.30 for the second.

`CCc1cccc(CC)c1-n1nc2c(c1-c1cc(F)c(NC(N)=O)cc1F)CN(Cc1cc(Cl)ccc1Cl)CC2` [Example 1.070] and `CCc1cccc(CC)c1-n1nc2c(c1-c1cc(F)c(NC(N)=O)cc1F)CN(Cc1cn(C)nc1C(F)(F)F)CC2` [Example 1.075] cannot be ordered by pIC50: no less than 8.30 for the first, 7.30 to 8.30 for the second.

`Cc1cccc(C)c1-n1nc2c(c1-c1cc(F)c(NC(N)=O)cc1F)CN(C(CC(C)(C)O)c1ccccc1)CC2` (centres unmarked) [Example 1.071] and `Cc1cccc(C)c1-n1nc2c(c1-c1cc(F)c(NC(N)=O)cc1F)CN(C(c1ccccc1)C(C)(C)O)CC2` (centres unmarked) [Example 1.085] fall in the same range of pIC50: 7.30 to 8.30 for the first, 7.30 to 8.30 for the second.

First: CCc1cccc(CC)c1-n1nc2c(c1-c1cc(F)c(NC(N)=O)cc1F)CN(Cc1cnn(CC)c1)CC2 [Example 1.072]
Second: CCCC(O)C(C)(C)N1CCc2nn(-c3c(CC)cccc3CC)c(-c3cc(F)c(NC(N)=O)cc3F)c2C1 (centres unmarked) [Example 1.090]
The pIC50 of the first is lower: 6.30 to 7.30 for the first, no less than 8.30 for the second.

First: COC(=O)CC(c1ccccc1)N1CCc2nn(-c3c(C)cccc3C)c(-c3cc(F)c(NC(N)=O)cc3F)c2C1 (centres unmarked) [Example 1.074]
Second: Cc1cccc(C)c1-n1nc2c(c1-c1cc(F)c(NC(N)=O)cc1F)CN(C(CO)c1ccccc1)CC2 (centres unmarked) [Example 1.087]
The pIC50 of the first is higher: no less than 8.30 for the first, 6.30 to 7.30 for the second.

First: Cc1cccc(C)c1-n1nc2c(c1-c1cc(F)c(NC(N)=O)cc1F)CN(C1(C)CCOCC1)CC2 [Example 1.078]
Second: Cc1cccc(C)c1-n1nc2c(c1-c1cc(F)c(NC(N)=O)cc1F)CN(CC(C)(C)O)CC2 [Example 1.086]
The pIC50 of the first is higher: 6.30 to 7.30 for the first, less than 6.30 for the second.

`CCc1cccc(CC)c1-n1nc2c(c1-c1cc(F)c(NC(N)=O)cc1F)CN(C(CO)c1ccccc1)CC2` (centres unmarked) [Example 1.079] and `CCc1cccc(CC)c1-n1nc2c(c1-c1cc(F)c(NC(N)=O)cc1F)CN([C@@H](CC)c1ccccc1)CC2` [Example 1.084] cannot be ordered by pIC50: 7.30 to 8.30 for the first, no less than 8.30 for the second.

`CCc1cccc(CC)c1-n1nc2c(c1-c1cc(F)c(NC(N)=O)cc1F)CN(C(c1ccccc1)C(C)(C)O)CC2` (centres unmarked) [Example 1.080] and `CC[C@@H](c1ccccc1)N1CCc2nn(-c3c(C)cccc3C)c(-c3cc(F)c(NC(N)=O)cc3F)c2C1` [Example 1.092] cannot be ordered by pIC50: no less than 8.30 for the first, no less than 8.30 for the second.

`CC[C@@H](c1ccccc1)N1CCc2nn(-c3c(C)cccc3C)c(-c3ccc(NC(N)=O)cc3F)c2C1` [Example 1.081] and `CC[C@@H](c1ccccc1)N1CCc2nn(-c3c(C)cccc3C)c(-c3ccc(NC(N)=O)c(F)c3)c2C1` [Example 1.083] fall in the same range of pIC50: 7.30 to 8.30 for the first, 7.30 to 8.30 for the second.

First: CC[C@@H](c1ccccc1)N1CCc2nn(-c3c(C)cccc3C)c(-c3ccc(NC(N)=O)cc3)c2C1 [Example 1.082]
Second: CCC(c1ccccc1)N1CCc2nn(-c3c(C)cccc3C)c(-c3cc(F)c(NC(N)=O)cc3F)c2C1 (centres unmarked) [Example 1.096]
The pIC50 of the first is lower: 6.30 to 7.30 for the first, no less than 8.30 for the second. The second is the more potent here.

First: Cc1cccc(C)c1-n1nc2c(c1-c1cc(F)c(NC(N)=O)cc1F)CN(C(C)(C)CO)CC2 [Example 1.088]
Second: Cc1cccc(C)c1-n1nc2c(c1-c1cc(F)c(NC(N)=O)cc1F)CN(c1ncc(C(C)(C)O)cc1Cl)CC2 [Example 1.104]
The pIC50 of the first is lower: less than 6.30 for the first, 6.30 to 7.30 for the second.

`Cc1cccc(C)c1-n1nc2c(c1-c1cc(F)c(NC(N)=O)cc1F)CN(c1ncc(C3CC3)cc1F)CC2` [Example 1.089] and `Cc1cccc(C)c1-n1nc2c(c1-c1cc(F)c(NC(N)=O)cc1F)CN(c1ccc(C3CC3)cc1Cl)CC2` [Example 1.093] cannot be ordered by pIC50: no less than 8.30 for the first, no less than 8.30 for the second.

`Cc1cccc(C)c1-n1nc2c(c1-c1cc(F)c(NC(N)=O)cc1F)CN(c1ncc(C(F)(F)F)cc1Cl)CC2` [Example 1.091] and `Cc1cccc(C)c1-n1nc2c(c1-c1cc(F)c(NC(N)=O)cc1F)CN(c1cc(C(F)(F)F)ccc1F)CC2` [Example 1.094] cannot be ordered by pIC50: no less than 8.30 for the first, no less than 8.30 for the second.

`Cc1cccc(C)c1-n1nc2c(c1-c1cc(F)c(NC(N)=O)cc1F)CN(c1ccc(Cl)cc1)CC2` [Example 1.095] and `Cc1cccc(C)c1-n1nc2c(c1-c1cc(F)c(NC(N)=O)cc1F)CN(c1ccccc1Cl)CC2` [Example 1.103] cannot be ordered by pIC50: no less than 8.30 for the first, no less than 8.30 for the second.

`Cc1cc(-c2c3c(nn2-c2c(C)cccc2C)CCN(c2ncc(Cl)cc2Cl)C3)c(F)cc1NC(N)=O` [Example 1.097] and `Cc1cccc(C)c1-n1nc2c(c1-c1cc(F)c(NC(N)=O)cc1F)CN(c1ncc(Cl)cc1C#N)CC2` [Example 1.102] cannot be ordered by pIC50: no less than 8.30 for the first, no less than 8.30 for the second.

`Cc1cccc(C)c1-n1nc2c(c1-c1cc(F)c(NC(N)=O)cc1F)CN(c1ccc(C(C)(C)C)cc1Cl)CC2` [Example 1.098] and `Cc1cccc(C)c1-n1nc2c(c1-c1cc(F)c(NC(N)=O)cc1F)CN(c1ccc(OC(F)(F)F)cc1F)CC2` [Example 1.099] cannot be ordered by pIC50: no less than 8.30 for the first, no less than 8.30 for the second.

First: CC[C@H](c1ccccc1)N1CCc2nn(-c3c(C)cccc3C)c(-c3cc(F)c(NC(N)=O)cc3F)c2C1 [Example 1.100]
Second: Cc1cccc(C)c1-n1nc2c(c1-c1cc(F)c(NC(N)=O)cc1F)CN(c1ncc(Cl)cc1C(N)=O)CC2 [Example 1.101]
The pIC50 of the first is higher: no less than 8.30 for the first, less than 6.30 for the second. The first is the more potent here.
